Test results taken from the supplement of paper PMC10307832.

Tests used:
Assay in all cases: relative viability (nuclei count vs DMSO), 5 days (fraction); higher = more cells survive
NCI-H1437 = tested on: NCI-H1437
Method in brief: (§1)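 Values are medians from duplicate plates. Each reflects relative viability, defined as the nuclei count of treated wells over that of vehicle wells. Lung cancer cell lines in 1536-well plates were pin-tool dosed one day after seeding with one drug alone or with a fixed anchor-drug dose plus five library-drug doses (not always all listed) in √10 steps, then fixed, stained and imaged at 4× after 5 days.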

NCI-H1395 = tested on: NCI-H1395
Method in brief: as §1

BEN = tested on: BEN
Method in brief: as §1

SK-LU-1 = tested on: SK-LU-1
Method in brief: as §1

HCC-827 = tested on: HCC-827
Method in brief: as §1

HARA = tested on: HARA
Method in brief: as §1

NCI-H1993 = tested on: NCI-H1993
Method in brief: as §1

NCI-H647 = tested on: NCI-H647
Method in brief: as §1

NCI-H1734 = tested on: NCI-H1734
Method in brief: as §1

EKVX = tested on: EKVX
Method in brief: as §1

SK-MES-1 = tested on: SK-MES-1
Method in brief: as §1

NCI-H2009 = tested on: NCI-H2009
Method in brief: as §1

NCI-H2170 = tested on: NCI-H2170
Method in brief: as §1

HCC-366 = tested on: HCC-366
Method in brief: as §1

NCI-H2087 = tested on: NCI-H2087
Method in brief: as §1

LOU-NH91 = tested on: LOU-NH91
Method in brief: as §1

NCI-H1792 = tested on: NCI-H1792
Method in brief: as §1

NCI-H522 = tested on: NCI-H522
Method in brief: as §1

NCI-H1355 = tested on: NCI-H1355
Method in brief: as §1

NCI-H661 = tested on: NCI-H661
Method in brief: as §1

NCI-H2405 = tested on: NCI-H2405
Method in brief: as §1

NCI-H2342 = tested on: NCI-H2342
Method in brief: as §1

SMILES: Nc1ccn([C@@H]2O[C@H](CO)[C@@H](O)[C@@H]2O)c(=O)n1 [Cytarabine] + Nc1nc2[nH]cc(CCc3ccc(C(=O)N[C@@H](CCC(=O)O)C(=O)O)cc3)c2c(=O)[nH]1 [Pemetrexed] (partner 0.2 µM)
- relative viability (NCI-H1437; first compound 0.005 µM): 0.339
- relative viability (NCI-H1437; first compound 0.01581 µM): 0.344
- relative viability (NCI-H1437; first compound 0.05 µM): 0.335
- relative viability (NCI-H1437; first compound 0.1581 µM): 0.321
- relative viability (NCI-H1437; first compound 0.5 µM): 0.258
- relative viability (NCI-H1395; first compound 0.005 µM): 0.798
- relative viability (NCI-H1395; first compound 0.01581 µM): 0.566
- relative viability (NCI-H1395; first compound 0.05 µM): 0.638
- relative viability (NCI-H1395; first compound 0.1581 µM): 0.361
- relative viability (NCI-H1395; first compound 0.5 µM): 0.326
- relative viability (BEN; first compound 0.005 µM): 0.632
- relative viability (BEN; first compound 0.01581 µM): 0.512
- relative viability (BEN; first compound 0.05 µM): 0.383
- relative viability (BEN; first compound 0.1581 µM): 0.366
- relative viability (BEN; first compound 0.5 µM): 0.287
- relative viability (SK-LU-1; first compound 0.005 µM): 0.827
- relative viability (SK-LU-1; first compound 0.01581 µM): 0.732
- relative viability (SK-LU-1; first compound 0.05 µM): 0.642
- relative viability (SK-LU-1; first compound 0.1581 µM): 0.377
- relative viability (SK-LU-1; first compound 0.5 µM): 0.331
- relative viability (HCC-827; first compound 0.005 µM): 0.222
- relative viability (HCC-827; first compound 0.01581 µM): 0.281
- relative viability (HCC-827; first compound 0.05 µM): 0.161
- relative viability (HCC-827; first compound 0.1581 µM): 0.152
- relative viability (HCC-827; first compound 0.5 µM): 0.113
- relative viability (HARA; first compound 0.005 µM): 0.243
- relative viability (HARA; first compound 0.01581 µM): 0.221
- relative viability (HARA; first compound 0.05 µM): 0.217
- relative viability (HARA; first compound 0.1581 µM): 0.171
- relative viability (HARA; first compound 0.5 µM): 0.153
- relative viability (NCI-H1993; first compound 0.005 µM): 0.682
- relative viability (NCI-H1993; first compound 0.01581 µM): 0.548
- relative viability (NCI-H1993; first compound 0.05 µM): 0.299
- relative viability (NCI-H1993; first compound 0.1581 µM): 0.448
- relative viability (NCI-H1993; first compound 0.5 µM): 0.471
- relative viability (NCI-H647; first compound 0.005 µM): 0.185
- relative viability (NCI-H647; first compound 0.01581 µM): 0.174
- relative viability (NCI-H647; first compound 0.05 µM): 0.0984
- relative viability (NCI-H647; first compound 0.1581 µM): 0.0797
- relative viability (NCI-H647; first compound 0.5 µM): 0.0683
- relative viability (NCI-H1734; first compound 0.005 µM): 0.501
- relative viability (NCI-H1734; first compound 0.01581 µM): 0.236
- relative viability (NCI-H1734; first compound 0.05 µM): 0.193
- relative viability (NCI-H1734; first compound 0.1581 µM): 0.117
- relative viability (NCI-H1734; first compound 0.5 µM): 0.103
- relative viability (EKVX; first compound 0.005 µM): 0.473
- relative viability (EKVX; first compound 0.01581 µM): 0.364
- relative viability (EKVX; first compound 0.05 µM): 0.361
- relative viability (EKVX; first compound 0.5 µM): 0.362
- relative viability (SK-MES-1; first compound 0.005 µM): 0.684
- relative viability (SK-MES-1; first compound 0.01581 µM): 0.595
- relative viability (SK-MES-1; first compound 0.05 µM): 0.336
- relative viability (SK-MES-1; first compound 0.1581 µM): 0.233
- relative viability (SK-MES-1; first compound 0.5 µM): 0.207
- relative viability (NCI-H2009; first compound 0.005 µM): 0.971
- relative viability (NCI-H2009; first compound 0.01581 µM): 0.99
- relative viability (NCI-H2009; first compound 0.05 µM): 0.996
- relative viability (NCI-H2009; first compound 0.1581 µM): 0.827
- relative viability (NCI-H2009; first compound 0.5 µM): 0.258
- relative viability (NCI-H2170; first compound 0.005 µM): 0.331
- relative viability (NCI-H2170; first compound 0.01581 µM): 0.291
- relative viability (NCI-H2170; first compound 0.05 µM): 0.333
- relative viability (NCI-H2170; first compound 0.1581 µM): 0.205
- relative viability (NCI-H2170; first compound 0.5 µM): 0.183
- relative viability (HCC-366; first compound 0.005 µM): 0.161
- relative viability (HCC-366; first compound 0.01581 µM): 0.217
- relative viability (HCC-366; first compound 0.05 µM): 0.25
- relative viability (HCC-366; first compound 0.1581 µM): 0.0693
- relative viability (HCC-366; first compound 0.5 µM): 0.062
- relative viability (NCI-H2087; first compound 0.005 µM): 0.631
- relative viability (NCI-H2087; first compound 0.01581 µM): 0.616
- relative viability (NCI-H2087; first compound 0.05 µM): 0.647
- relative viability (NCI-H2087; first compound 0.1581 µM): 0.57
- relative viability (NCI-H2087; first compound 0.5 µM): 0.283
- relative viability (LOU-NH91; first compound 0.005 µM): 0.383
- relative viability (LOU-NH91; first compound 0.01581 µM): 0.395
- relative viability (LOU-NH91; first compound 0.05 µM): 0.379
- relative viability (LOU-NH91; first compound 0.1581 µM): 0.318
- relative viability (LOU-NH91; first compound 0.5 µM): 0.339
- relative viability (NCI-H1792; first compound 0.01581 µM): 0.672
- relative viability (NCI-H1792; first compound 0.05 µM): 0.751
- relative viability (NCI-H1792; first compound 0.1581 µM): 0.182
- relative viability (NCI-H1792; first compound 0.5 µM): 0.115
- relative viability (NCI-H522; first compound 0.005 µM): 0.942
- relative viability (NCI-H522; first compound 0.01581 µM): 0.846
- relative viability (NCI-H522; first compound 0.05 µM): 0.631
- relative viability (NCI-H522; first compound 0.1581 µM): 0.578
- relative viability (NCI-H522; first compound 0.5 µM): 0.455
- relative viability (NCI-H1355; first compound 0.005 µM): 0.883
- relative viability (NCI-H1355; first compound 0.01581 µM): 0.988
- relative viability (NCI-H1355; first compound 0.05 µM): 0.821
- relative viability (NCI-H1355; first compound 0.1581 µM): 0.553
- relative viability (NCI-H1355; first compound 0.5 µM): 0.324
- relative viability (NCI-H661; first compound 0.005 µM): 0.94
- relative viability (NCI-H661; first compound 0.01581 µM): 0.849
- relative viability (NCI-H661; first compound 0.05 µM): 0.851
- relative viability (NCI-H661; first compound 0.1581 µM): 0.609
- relative viability (NCI-H661; first compound 0.5 µM): 0.373
- relative viability (NCI-H2405; first compound 0.005 µM): 1
- relative viability (NCI-H2405; first compound 0.01581 µM): 0.654
- relative viability (NCI-H2405; first compound 0.05 µM): 0.61
- relative viability (NCI-H2405; first compound 0.1581 µM): 0.495
- relative viability (NCI-H2405; first compound 0.5 µM): 0.41
- relative viability (NCI-H2342; first compound 0.005 µM): 0.667
- relative viability (NCI-H2342; first compound 0.01581 µM): 0.707
- relative viability (NCI-H2342; first compound 0.05 µM): 0.638
- relative viability (NCI-H2342; first compound 0.1581 µM): 0.504
- relative viability (NCI-H2342; first compound 0.5 µM): 0.353
